Reference: article PMC6627609, “Targeting Quorum Sensing: High-Throughput Screening to Identify Novel LsrK Inhibitors” (International Journal of Molecular Sciences, 2019)
Counter-ions that a name gives are not always drawn.

Each molecule was assayed against LsrK (Salmonella typhimurium, UniProt Q8ZKQ6) (assay: biochemical). Details: not given.
Format: biochemical, S. typhimurium

LsrK, sequence (Q8ZKQ6 whole entry): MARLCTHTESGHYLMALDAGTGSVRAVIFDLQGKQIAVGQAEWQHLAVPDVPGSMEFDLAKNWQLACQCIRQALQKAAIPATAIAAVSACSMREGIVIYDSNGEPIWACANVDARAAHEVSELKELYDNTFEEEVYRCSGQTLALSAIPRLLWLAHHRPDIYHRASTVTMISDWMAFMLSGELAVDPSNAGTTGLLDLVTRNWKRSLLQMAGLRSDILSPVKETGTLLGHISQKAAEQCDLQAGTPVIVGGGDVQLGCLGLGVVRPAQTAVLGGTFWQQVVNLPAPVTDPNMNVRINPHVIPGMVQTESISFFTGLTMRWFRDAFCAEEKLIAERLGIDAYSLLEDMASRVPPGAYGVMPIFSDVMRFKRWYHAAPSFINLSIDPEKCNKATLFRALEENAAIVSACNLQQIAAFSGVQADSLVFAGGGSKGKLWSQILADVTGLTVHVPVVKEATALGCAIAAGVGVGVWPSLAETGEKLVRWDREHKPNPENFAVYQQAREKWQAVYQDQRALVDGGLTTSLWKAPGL

| Molecule | inhibition at 50 µM [%] |
| --- | --- |
| CO[C@H]1C[C@H](O[C@@H]2/C(C)=C/C[C@@H]3C[C@@H](C[C@]4(CC[C@H](C)[C@@H](C5CCCCC5)O4)O3)OC(=O)[C@@H]3C=C(C)/C(=N/O)[C@H]4OC/C(=C\C=C\[C@@H]2C)[C@]43O)O[C@@H](C)[C@@H]1O [SELAMECTIN] | 0 |
| CN1C[C@H](C(=O)N[C@]2(C)O[C@@]3(O)[C@@H]4CCCN4C(=O)[C@H](Cc4ccccc4)N3C2=O)C=C2c3cccc4[nH]cc(c34)C[C@H]21 [ERGOTAMINE TARTRATE] | 2 |
| N[C@@H](Cc1ccc(O)cc1)C(=O)O [TYROSINE] | 1 |
| CC(C)[N+]1(C)[C@@H]2CC[C@H]1C[C@@H](OC(=O)C(CO)c1ccccc1)C2 (stereo partly drawn) [IPRATROPIUM BROMIDE] | 0 |
| Cc1c(C)c2c(c(C)c1O)CCC(C)(C(=O)O)O2 (stereo not drawn) [TROLOX] | 0 |
| C[C@H](CCC(=O)NCC(=O)O)[C@H]1CC[C@H]2[C@@H]3[C@H](O)C[C@@H]4C[C@H](O)CC[C@]4(C)[C@H]3C[C@H](O)[C@]12C [GLYCOCHOLIC ACID] | 1 |
| CCCCOc1ccc(C(=O)CCN2CCCCC2)cc1 [DYCLONINE HYDROCHLORIDE] | 131 |
| CC[C@H]1OC(=O)[C@H](C)[C@@H](O[C@H]2C[C@@](C)(OC)[C@@H](O)[C@H](C)O2)[C@H](C)[C@@H](O[C@@H]2O[C@H](C)C[C@H](N(C)C)[C@H]2O)[C@](C)(O)C[C@@H](C)C(=O)[C@H](C)[C@@H](O)[C@]1(C)O [ERYTHROMYCIN] | 0 |
| COc1cc([C@@H]2c3cc4c(cc3[C@@H](O[C@@H]3O[C@@H]5CO[C@@H](c6cccs6)O[C@H]5[C@H](O)[C@H]3O)[C@H]3COC(=O)[C@H]23)OCO4)cc(OC)c1O [TENIPOSIDE] | 2 |
| c1ccc(/N=N/c2ccccc2)cc1 [AZOBENZENE] | 1 |
| C[C@H]1[C@@H](O)O[C@@H]2O[C@@]3(C)CC[C@H]4[C@H](C)CC[C@@H]1[C@@]24OO3 [ARTENIMOL] | 0 |
| S=C=NCc1ccccc1 [BENZYL ISOTHIOCYANATE] | 2 |
| CNC(=C[N+](=O)[O-])NCCSCc1ccc(CN(C)C)o1 [RANITIDINE] | 1 |
| C=CC(C1=CC(=O)C(OC)=CC1=O)c1ccccc1 (stereo not drawn) [4-METHOXYDALBERGIONE] | 52 |
| CCCSc1ccc2nc(NC(=O)OC)[nH]c2c1 [ALBENDAZOLE] | 4 |
| C1N2CN3CN1CN(C2)C3 [METHENAMINE] | 2 |
| CC1(C)S[C@@H]2[C@H](NC(=O)Cc3ccccc3)C(=O)N2[C@H]1C(=O)O [PENICILLIN G POTASSIUM] | 4 |
| Oc1c(I)cc(Cl)c2cccnc12 [CLIOQUINOL] | 1 |
| COc1ccc([C@@H](C)C(=O)c2ccc(O)cc2O)cc1 [ANGOLENSIN (R)] | 1 |
| COCCCOc1cc(C[C@@H](C[C@H](N)[C@@H](O)C[C@H](C(=O)NCC(C)(C)C(N)=O)C(C)C)C(C)C)ccc1OC [ALISKIREN HEMIFUMARATE] | 0 |

| Molecule | inhibition at 50 µM [%] |
| --- | --- |
| Cc1cc(=O)oc2c(O)c(O)ccc12 [4-METHYLDAPHNETIN] | 1 |
| O=c1c(O)cccc2cc(O)c(O)c(O)c12 [PURPUROGALLIN] | 89 |
| CC[N+](CC)(CC(=O)Nc1c(C)cccc1C)Cc1ccccc1 [DENATONIUM BENZOATE] | 1 |
| CCCCC(CC)CCC(CC(C)C)OS(=O)(=O)O (stereo not drawn) [SODIUM TETRADECYL SULFATE] | 98 |
| Cc1nccc2c1[nH]c1cc(O)ccc12 [HARMOL HYDROCHLORIDE] | 3 |
| CN1CCCC(n2nc(Cc3ccc(Cl)cc3)c3ccccc3c2=O)CC1 (stereo not drawn) [AZELASTINE HYDROCHLORIDE] | 1 |
| C[C@]12CC[C@H]3[C@@H](CC[C@]4(O)C[C@@H](O)CC[C@]34C=O)[C@@]1(O)CC[C@@H]2C1=CC(=O)OC1 [STROPHANTHIDIN] | 0 |
| NS(=O)(=O)c1cc2c(cc1C(F)(F)F)NC(Cc1ccccc1)NS2(=O)=O (stereo not drawn) [BENDROFLUMETHIAZIDE] | 0 |
| COc1c(O)cc2c(c1O)[C@@H]1O[C@H](CO)[C@@H](O)[C@H](O)[C@H]1OC2=O [BERGENIN] | 0 |
| N[C@@H](C(=O)O)[C@@H](O)[C@H](O)[C@H](O)CO [GL[…]] | 1 |
| CN(C)CCC[C@@]1(c2ccc(F)cc2)OCc2cc(C#N)ccc21 [ESCITALOPRAM OXALATE] | 1 |
| CCCCNc1cc(C(=O)O)cc(S(N)(=O)=O)c1Oc1ccccc1 [BUMETANIDE] | 1 |
| O=c1[nH]c(=O)n([C@H]2C[C@H](O)[C@@H](CO)O2)cc1F [FLOXURIDINE] | 0 |
| COCC1=C(C(=O)OC(C)OC(=O)OC(C)C)N2C(=O)[C@@H](NC(=O)/C(=N\OC)c3csc(N)n3)[C@H]2SC1 (stereo partly drawn) [CEFPODOXIME PROXETIL] | 24 |
| COc1ccc(-c2oc3c(CC=C(C)C)c(O[C@@H]4O[C@H](CO)[C@@H](O)[C@H](O)[C@H]4O)cc(O)c3c(=O)c2O[C@@H]2O[C@@H](C)[C@H](O)[C@@H](O)[C@H]2O)cc1 [ICARIIN] | 36 |
| CC(=O)OC[C@@]1(O)C[C@@]23CC[C@@H]4c5ccoc5CC[C@@]4(C)[C@@H]2CC[C@@H]1C3 [CAFESTOL ACETATE] | 1 |
| CO[C@@H]1[C@@H](OC(N)=O)[C@@H](O)[C@H](Oc2ccc3c(O)c(NC(=O)c4ccc(O)c(CC=C(C)C)c4)c(=O)oc3c2C)OC1(C)C [NOVOBIOCIN SODIUM] | 0 |
| CCN(CC)CCNc1ccc(CO)c2sc3ccccc3c(=O)c12 [HYCANTHONE] | 1 |
| C=C(C)[C@H]1Cc2c(ccc3c(=O)c4c(oc23)COc2cc(OC)c(OC)cc2-4)O1 [DEHYDROROTENONE] | 1 |
| Cc1nnc(SCC2=C(C(=O)O)N3C(=O)[C@@H](NC(=O)Cn4cnnn4)[C@H]3SC2)s1 [CEFAZOLIN SODIUM] | 1 |

| Molecule | inhibition at 50 µM [%] |
| --- | --- |
| COC(=O)c1c(C)c2c(c(C)c1O)OC(=O)c1c(C)c(Cl)c(O)c(Cl)c1O2 [LEOIDIN] | 83 |
| CC(=O)[C@H]1CC[C@H]2[C@@H]3CC=C4C[C@@H](OC(=O)CCC(=O)O)CC[C@]4(C)[C@H]3CC[C@]12C [PREGNENOLONE SUCCINATE] | 4 |
| CCC(C)C(=O)O[C@@H]1C[C@@]2(C)[C@H](c3ccoc3)OC(=O)CC23OC2(C)O[C@]14[C@]1(C)[C@@H](CC(=O)OC)C5(C)CC1(O)[C@](O)(C5OC(=O)C1(C)OC1C)[C@@H](OC(C)=O)[C@]34O2 (stereo partly drawn) [UTILIN] | 1 |
| Cc1nnc(NS(=O)(=O)c2ccc(N)cc2)s1 [SULFAMETHIZOLE] | 2 |
| N=c1ccn2c(n1)O[C@H]1[C@H](O)[C@@H](CO)O[C@H]12 [ANCITABINE HYDROCHLORIDE] | 2 |
| COc1cccc2c1C(=O)c1c(O)c3c(c(O)c1C2=O)C[C@@](O)(C(C)=O)C[C@@H]3O[C@H]1C[C@H](N)[C@H](O)[C@H](C)O1 [DAUNORUBICIN] | 2 |
| CO[C@H]1/C=C/O[C@@]2(C)Oc3c(C)c(O)c4c(O)c(c(/C=N/N5CCN(C)CC5)c(O)c4c3C2=O)NC(=O)/C(C)=C\C=C\[C@H](C)[C@H](O)[C@@H](C)[C@@H](O)[C@@H](C)[C@H](OC(C)=O)[C@@H]1C [RIFAMPIN] | 18 |
| CC[n+]1c(-c2ccccc2)c2cc(N)ccc2c2ccc(N)cc21 [HOMIDIUM BROMIDE] | 72 |
| O=C(O)/C=C/C=C/c1ccccc1 [JUAREZIC ACID] | 1 |
| C[C@H]1[C@H](NC(=O)/C(=N\OC(C)(C)C(=O)O)c2csc(N)n2)C(=O)N1S(=O)(=O)O [AZTREONAM] | 1 |
| CCS(=O)(=O)CCn1c([N+](=O)[O-])cnc1C [TINIDAZOLE] | 1 |
| COc1ccc2cc3[n+](cc2c1OC)CCc1cc2c(cc1-3)OCO2 [BERBERINE CHLORIDE] | 1 |
| CC(C)Oc1ccc2c(=O)c(-c3ccccc3)coc2c1 [IPRIFLAVONE] | 2 |
| CN(C)c1ccc2nc3ccc(=[N+](C)C)cc-3sc2c1 [METHYLENE BLUE] | 3 |
| C=CC[C@]1(O)CC[C@H]2[C@@H]3CCC4=CC(=O)CCC4=C3C=C[C@@]21C [ALTRENOGEST] | 0 |
| NCCCNCCSP(=O)(O)O [AMIFOSTINE] | 3 |
| OC[C@H]1O[C@H](O[C@]2(CCl)O[C@H](CCl)[C@@H](O)[C@@H]2O)[C@H](O)[C@@H](O)[C@H]1Cl [SUCRALOSE] | 3 |
| O=c1cc(-c2ccccc2)oc2cc(O)c(O)c(O)c12 [BAICALEIN] | 2 |

Same assay, conditions: 50 µM

| Molecule | Inhibition (%) |
| --- | --- |
| Cc1cc(C(C)(C)CC(C)(C)C)ccc1OCCOCC[N+](C)(C)Cc1ccccc1.[Cl-] [METHYLBENZETHONIUM CHLORIDE] | 89 |
| CRESOL | 0 |
| CC1=C(/C=C/C(C)=C/C=C/C(C)=C/C=C/C=C(C)/C=C/C=C(C)/C=C/C2=C(C)C(=O)CCC2(C)C)C(C)(C)CCC1=O [CANTHAXANTHIN (euglenanone), CANTHAXANTHIN] | 2 |
| C[N+](C)(CCOc1ccccc1)Cc1ccccc1.O=C([O-])c1cc2ccccc2cc1O [BEPHENIUM HYDROXYNAPTHOATE] | 1 |
| CHLOROPHYLLIDE Cu COMPLEX Na SALT | 104 |
| CNC[C@H](O)c1ccc(O)c(O)c1.O=C(O)C(O)C(O)C(=O)O [ADRENALINE BITARTRATE] | 15 |
| O=c1ccn([C@@H]2O[C@H](COP(=O)([O-])OP(=O)([O-])OP(=O)([O-])O)[C@@H](O)[C@H]2O)c(=O)[nH]1.[Na+].[Na+].[Na+] [URIDINE TRIPHOSPHATE TRISODIUM] | 1 |
| Cc1c(S(=O)(=O)[O-])oc2c1C(=O)C(=O)c1c-2ccc2c1CCCC2(C)C.[Na+] [TANSHINONE IIA SULFONATE SODIUM] | 55 |
| Cc1c[nH]c2ccccc12 [SKATOLE] | 1 |
| C=CC[S+]([O-])C[C@H](N)C(=O)O (mixture of isomers) [L(+/-)-ALLIIN] | 44 |
| COc1ccc2oc(-c3ccccc3OC)cc(=O)c2c1 [6.2'-DIMETHOXYFLAVONE] | 1 |
| CC(=O)O[C@@H]1C[C@H]2C(C)(C)C(=O)C=C[C@]2(C)[C@H]2CC[C@]3(C)C(=CC(=O)O[C@H]3c3ccoc3)[C@@]21C [DEOXYGEDUNIN] | 0 |
| CC(=O)Oc1cccc2c1C(=O)c1c(OC(C)=O)cc(C(=O)O)cc1C2=O [DIACERIN] | 0 |
| BACITRACIN | 5 |
